Assay results as given in patent US10807970B2 (priority 2016, dated 2020).
Like-named read-outs stand apart in the source and are kept apart here.

Target: human σ1 receptor (Homo sapiens, UniProt Q99720)
Experiment: Human σ1 receptor radioligand assay ([3H](+)-pentazocine, transfected HEK-293 membranes)
Assay type: binding
Parameters: μ and σ1 dual binding: key to the marks not given beside the values
Conditions: one class symbol for both Ki-σ1 (human σ1 receptor, A1) and Ki-μ (human μ-opioid receptor, A2)
Outline: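 Membranes from HEK-293 cells transfected with human σ1 receptor (7 μg) incubated with 5 nM [3H](+)-pentazocine in 50 mM Tris-HCl pH 8, 120 min at 37° C. Non-specific binding defined with 10 μM haloperidol. Bound radioligand separated by filtration, washed with ice-cold 10 mM Tris-HCl pH 7.4, and counted by scintillation.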

[1] = read-out: μ and σ1 dual binding

human σ1 receptor, sequence (Q99720 whole entry): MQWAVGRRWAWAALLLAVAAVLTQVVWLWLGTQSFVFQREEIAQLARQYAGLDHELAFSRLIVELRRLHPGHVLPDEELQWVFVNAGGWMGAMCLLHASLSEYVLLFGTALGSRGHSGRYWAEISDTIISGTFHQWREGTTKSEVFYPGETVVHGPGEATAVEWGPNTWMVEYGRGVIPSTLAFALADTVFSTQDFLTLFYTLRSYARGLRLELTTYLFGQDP

Row | SMILES | μ and σ1 dual binding | Ki (μ and σ1 dual binding) [µM] | further results
1 | CN(Cc1ccccc1)[C@@H]1CCN([C@@]2(C(=O)c3ccccn3)CCOC(C)(C)C2)C1 [Example 143] | ++ | – | –
2 | CC1(N2CCN(Cc3ccc(C#N)cc3)CC2)CCOCC1 [Example 183, 4-((4-(4-methyltetrahydro-2H-pyran-4-yl)piperazin-1-yl)methyl)benzonitrile] | ++ | – | –
3 | CC[C@]1(N2CCN(CCOC(C)C)CC2)CCO[C@@H](C)C1 [Example 157, 1-((2S,4S)-4-ethyl-2-methyltetrahydro-2H-pyran-4-yl)-4-(2-isopropoxyethyl)piperazine] | – | < 0.1 | –
4 | CC(C)OCCN(C)[C@@H]1CCN([C@]2(C(=O)c3ccccn3)CCOC(C)(C)C2)C1 [Example 144, ((R)-4-((R)-3-((2-isopropoxyethyl)(methyl)amino)pyrrolidin-1-yl)-2,2-dimethyltetrahydro-2H-pyran-4-yl)(pyridin-2-yl)methanone] | – | – | Ki [1]: < 0.5 µM
5 | CC(C)COCCN1CCN([C@@]2(C(=O)c3ccccn3)CCOC(C)(C)C2)CC1 [Example 136, (S)-(4-(4-(2-isobutoxyethyl)piperazin-1-yl)-2,2-dimethyltetrahydro-2H-pyran-4-yl)(pyridin-2-yl)methanone] | ++ | – | –
6 | CC[C@]1(N2CCN(Cc3ccccc3)CC2)CCO[C@@H](C)C1 [Example 163, 1-benzyl-4-((2S,4S)-4-ethyl-2-methyltetrahydro-2H-pyran-4-yl)piperazine] | ++ | – | –
7 | CC(C)CCN1CCN([C@@]2(C(=O)c3ccccn3)CCOC(C)(C)C2)CC1 [Example 132, (S)-(4-(4-isopentylpiperazin-1-yl)-2,2-dimethyltetrahydro-2H-pyran-4-yl)(pyridin-2-yl)methanone] | – | < 0.5 | –
8 | CC1(C)CC(c2ccccc2)(N2CCN(Cc3ccccc3)CC2)CCO1 (stereo not shown) [Example 35, 1-benzyl-4-(2,2-dimethyl-4-phenyltetrahydro-2H-pyran-4-yl)piperazine] | – | < 0.5 | –
9 | CC(C)CCN1CCN([C@]2(C)CCO[C@@H](C)C2)CC1 [Example 162, 1-((2S,4R)-2,4-dimethyltetrahydro-2H-pyran-4-yl)-4-isopentylpiperazine] | ++ | – | –
10 | CC(C)C1(N2CCN(CCc3cc(F)ccc3F)CC2)CCOC(C)(C)C1 (stereo not shown) [Example 92, 1-(2,5-difluorophenethyl)-4-(4-isopropyl-2,2-dimethyltetrahydro-2H-pyran-4-yl)piperazine] | – | < 0.5 | –
11 | CC(C)(F)COCCN1CCN(C2(C(=O)c3ccccn3)CCOC(C)(C)C2)CC1 (stereo not shown) [Example 116, (4-(4-(2-(2-fluoro-2-methylpropoxy)ethyl)piperazin-1-yl)-2,2-dimethyltetrahydro-2H-pyran-4-yl)(pyridin-2-yl)methanone] | – | < 0.5 | –
12 | CC(C)CCN1CCC([C@]2(C(=O)c3ccccn3)CCOC(C)(C)C2)CC1 [Example 114, (S)-(4-(1-isopentylpiperidin-4-yl)-2,2-dimethyltetrahydro-2H-pyran-4-yl)(pyridin-2-yl)methanone] | – | < 0.5 | –
13 | CC1(C)CC(C2CCN(Cc3ccccc3)CC2)(C(O)c2ccccn2)CCO1 (stereo not shown) [Example 131, (4-(1-benzylpiperidin-4-yl)-2,2-dimethyltetrahydro-2H-pyran-4-yl)(pyridin-2-yl)methanol] | ++ | – | –
14 | CC(C)C1(N2CCN(Cc3ccccc3)CC2)CCOC(C)(C)C1 (stereo not shown) [Example 43, 1-benzyl-4-(4-isopropyl-2,2-dimethyltetrahydro-2H-pyran-4-yl)piperazine] | – | < 0.5 | –
15 | CC[C@@]1(N2CCN(CCc3ccccc3)CC2)CCO[C@@H](C)C1 (stereo in doubt) [Example 47, 1-(4-ethyl-2-methyltetrahydro-2H-pyran-4-yl)-4-phenethylpiperazine] | ++ | – | –
16 | CC(C)CCN1CCN([C@]2(C(=O)c3ccccn3)CCO[C@H](C)C2)CC1 [Example 246, ((2R,4R)-4-(4-isopentylpiperazin-1-yl)-2-methyltetrahydro-2H-pyran-4-yl)(pyridin-2-yl)methanone] | – | – | Ki [1]: < 0.5 µM
